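Growth conditions: 96-well plates. Treatment: test compound, 48 hours, 5 concentrations. Analysis: linear interpolation between bracketing concentrations; unreached endpoints set to highest concentration. GI50 is the concentration that inhibits growth by half.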 Active and inactive are the calls of the source. Rule as the data show it: active = GI50 up to about 1.1 µM and inactive = higher.
Key:
Experiment in all cases: NCI anticancer screen, dose series, 48 h
NCI-H460 = system: NCI-H460
SK-OV-3 = system: SK-OV-3
HOP-92 = system: HOP-92
OVCAR-5 = system: OVCAR-5
NCI-H23 = system: NCI-H23
HOP-62 = system: HOP-62
OVCAR-3 = system: OVCAR-3
SF-295 = system: SF-295
HCT-116 = system: HCT-116
U-251 = system: U-251
UACC-62 = system: UACC-62
SK-MEL-28 = system: SK-MEL-28
SK-MEL-5 = system: SK-MEL-5
SNB-75 = system: SNB-75
SN12C = system: SN12C
OVCAR-8 = system: OVCAR-8
MOLT-4 = system: MOLT-4

Measured: GI50

COC1(OC)C2(Cl)C(Cl)=C(Cl)C1(Cl)C1C=CC=CC12 (stereo unspecified)
inactive: NCI-H460 > 100 µM | SK-OV-3 > 100 µM | HOP-92 40.2 µM | OVCAR-5 > 100 µM | NCI-H23 > 100 µM | HOP-62 > 100 µM | OVCAR-3 > 100 µM | SF-295 > 100 µM | HCT-116 43.5 µM | U-251 > 100 µM | UACC-62 73.5 µM | SK-MEL-28 > 100 µM | SK-MEL-5 53.2 µM | SNB-75 66.5 µM | SN12C 75.3 µM | OVCAR-8 > 100 µM

Cn1nc(-c2ccccc2)c(C(=O)/C=C/c2ccc(Cl)cc2)c(N2CCOCC2)c1=O
inactive: NCI-H460 2.64 µM | SK-OV-3 5.51 µM | HOP-92 2.11 µM | NCI-H23 2.74 µM | HOP-62 10.5 µM | HCT-116 1.85 µM | U-251 3.37 µM | UACC-62 3.27 µM | SK-MEL-28 2.58 µM | SK-MEL-5 4.98 µM | SN12C 5.7 µM | OVCAR-8 4.13 µM
active: SF-295 0.412 µM | MOLT-4 0.752 µM

COc1ccc(C(=O)C(C(=O)C(=O)Nc2nc3ccc(OC)cc3s2)c2ccc(OC)cc2)cc1 (stereo unspecified)
inactive: NCI-H460 > 100 µM | SK-OV-3 > 100 µM | HOP-92 > 100 µM | OVCAR-5 > 100 µM | NCI-H23 > 100 µM | HOP-62 > 100 µM | OVCAR-3 > 100 µM | SF-295 > 100 µM | U-251 > 100 µM | UACC-62 > 100 µM | SK-MEL-28 > 100 µM | SK-MEL-5 55.2 µM | SNB-75 26.5 µM | SN12C > 100 µM | MOLT-4 > 100 µM | OVCAR-8 > 100 µM

CC1(C)CC(/C=C2/OC(=O)c3ccccc32)=C(C(N)=O)C(=O)O1
inactive: NCI-H460 > 100 µM | SK-OV-3 > 100 µM | OVCAR-5 > 100 µM | NCI-H23 > 100 µM | HOP-62 > 100 µM | OVCAR-3 > 100 µM | SF-295 > 100 µM | HCT-116 > 100 µM | U-251 > 100 µM | UACC-62 > 100 µM | SK-MEL-28 > 100 µM | SK-MEL-5 > 100 µM | SNB-75 > 100 µM | SN12C > 100 µM | MOLT-4 > 100 µM | OVCAR-8 > 100 µM

COc1ccc(C(=O)NCCN(C)C)c2nc3ccccc3nc12
inactive: SK-OV-3 19.5 µM | HOP-92 9.51 µM | OVCAR-5 8.61 µM | NCI-H23 4.72 µM | HOP-62 3.3 µM | OVCAR-3 5.25 µM | SF-295 6.82 µM | HCT-116 2.24 µM | U-251 4.79 µM | UACC-62 5.38 µM | SK-MEL-28 5.89 µM | SK-MEL-5 4.81 µM | SNB-75 8.11 µM | SN12C 3.62 µM | MOLT-4 1.94 µM | OVCAR-8 4.3 µM

O=C(Nc1ccccc1C(=O)O)C(=O)C(C(=O)c1ccccc1-c1ccccc1)C1OC(=O)c2ccccc21 (stereo unspecified)
inactive: NCI-H460 17.8 µM | SK-OV-3 30.9 µM | OVCAR-5 23.6 µM | NCI-H23 22.8 µM | HOP-62 18 µM | OVCAR-3 16.6 µM | SF-295 25.2 µM | HCT-116 22 µM | U-251 15.4 µM | UACC-62 16.6 µM | SK-MEL-28 19.4 µM | SK-MEL-5 19.2 µM | SNB-75 25.1 µM | SN12C 17.1 µM | MOLT-4 21.8 µM | OVCAR-8 15.7 µM

CN(C)CCNC(=O)c1cccc2nc3cc(Cl)ccc3nc12
inactive: SK-OV-3 5.94 µM | HOP-92 5.77 µM | OVCAR-5 3.05 µM | NCI-H23 2 µM | HOP-62 2.14 µM | OVCAR-3 2.17 µM | SF-295 3.25 µM | U-251 2.86 µM | UACC-62 3.69 µM | SK-MEL-28 2.9 µM | SK-MEL-5 3.19 µM | SNB-75 2.52 µM | SN12C 2.07 µM | OVCAR-8 1.99 µM
active: HCT-116 0.764 µM | MOLT-4 0.378 µM

c1ccc2cc3[s+]snc3cc2c1
inactive: NCI-H460 > 100 µM | SK-OV-3 > 100 µM | OVCAR-5 > 100 µM | NCI-H23 > 100 µM | HOP-62 > 100 µM | OVCAR-3 > 100 µM | SF-295 > 100 µM | HCT-116 > 100 µM | U-251 85.9 µM | UACC-62 > 100 µM | SK-MEL-28 > 100 µM | SK-MEL-5 97.9 µM | SNB-75 > 100 µM | SN12C > 100 µM | MOLT-4 > 100 µM | OVCAR-8 > 100 µM

CC(N)Cc1ccc(C(=O)Cl)cc1 (stereo unspecified)
inactive: NCI-H460 > 100 µM | SK-OV-3 > 100 µM | NCI-H23 > 100 µM | HOP-62 > 100 µM | OVCAR-3 > 100 µM | SF-295 > 100 µM | HCT-116 > 100 µM | U-251 > 100 µM | UACC-62 > 100 µM | SK-MEL-28 > 100 µM | SK-MEL-5 > 100 µM | SNB-75 > 100 µM | SN12C > 100 µM | MOLT-4 > 100 µM | OVCAR-8 > 100 µM

CN(C)C(=S)/N=c1\ss/c(=N\S(=O)(=O)c2ccccc2)n1C
inactive: NCI-H460 > 100 µM | SK-OV-3 > 100 µM | HOP-92 > 100 µM | OVCAR-5 > 100 µM | NCI-H23 > 100 µM | HOP-62 > 100 µM | SF-295 > 100 µM | HCT-116 > 100 µM | U-251 > 100 µM | UACC-62 > 100 µM | SK-MEL-28 > 100 µM | SK-MEL-5 > 100 µM | SNB-75 39.2 µM | SN12C > 100 µM | MOLT-4 > 100 µM | OVCAR-8 > 100 µM

Nc1ccn(CCOC(=O)c2ccccc2)c(=O)n1
inactive: NCI-H460 > 100 µM | SK-OV-3 > 100 µM | HOP-92 > 100 µM | OVCAR-5 > 100 µM | HOP-62 > 100 µM | OVCAR-3 > 100 µM | SF-295 > 100 µM | HCT-116 > 100 µM | U-251 > 100 µM | UACC-62 > 100 µM | SK-MEL-28 > 100 µM | SK-MEL-5 > 100 µM | SNB-75 > 100 µM | SN12C > 100 µM | OVCAR-8 > 100 µM

OCCc1cnco1
inactive: NCI-H460 > 100 µM | SK-OV-3 > 100 µM | NCI-H23 > 100 µM | HOP-62 > 100 µM | OVCAR-3 > 100 µM | SF-295 > 100 µM | HCT-116 > 100 µM | U-251 > 100 µM | UACC-62 > 100 µM | SK-MEL-28 > 100 µM | SK-MEL-5 > 100 µM | SNB-75 > 100 µM | SN12C > 100 µM | MOLT-4 > 100 µM | OVCAR-8 > 100 µM

O=C(O)CNc1c2ccccc2[n+]([O-])c2ccccc12
inactive: NCI-H460 > 100 µM | SK-OV-3 > 100 µM | OVCAR-5 > 100 µM | NCI-H23 60.7 µM | HOP-62 > 100 µM | OVCAR-3 > 100 µM | SF-295 > 100 µM | HCT-116 44.6 µM | U-251 > 100 µM | UACC-62 67.8 µM | SK-MEL-28 42.2 µM | SK-MEL-5 45.5 µM | SNB-75 76.2 µM | SN12C > 100 µM | MOLT-4 69.3 µM | OVCAR-8 78.7 µM

CC(C)(C)c1ccnc(/N=C2\N/C(=N\c3cc(C(C)(C)C)ccn3)c3ccccc32)c1
inactive: NCI-H460 38.7 µM | SK-OV-3 26.5 µM | HOP-92 22.6 µM | OVCAR-5 > 100 µM | NCI-H23 30.7 µM | HOP-62 31.6 µM | OVCAR-3 17.8 µM | SF-295 23.4 µM | HCT-116 14.6 µM | U-251 26.1 µM | UACC-62 50.1 µM | SK-MEL-28 24.4 µM | SNB-75 > 100 µM | SN12C > 100 µM | MOLT-4 7.14 µM | OVCAR-8 17.9 µM

CN1C(=O)C2C3C=C4c5ccccc5N(c5ccccc5)C4(C2C1=O)[C@H]1C(=O)N(C)C(=O)[C@@H]31 (stereo partly specified)
inactive: NCI-H460 > 100 µM | SK-OV-3 > 100 µM | HOP-92 > 100 µM | OVCAR-5 > 100 µM | NCI-H23 > 100 µM | HOP-62 > 100 µM | OVCAR-3 > 100 µM | SF-295 > 100 µM | HCT-116 > 100 µM | U-251 > 100 µM | UACC-62 > 100 µM | SK-MEL-28 > 100 µM | SNB-75 > 100 µM | SN12C > 100 µM | MOLT-4 > 100 µM | OVCAR-8 > 100 µM

CC1(C)C2CCC13CS(=O)(=O)N1O[C@]13C(=O)O2 (stereo partly specified)
inactive: NCI-H460 > 100 µM | HOP-92 > 100 µM | OVCAR-5 > 100 µM | NCI-H23 > 100 µM | HOP-62 > 100 µM | OVCAR-3 > 100 µM | SF-295 > 100 µM | HCT-116 > 100 µM | U-251 > 100 µM | SK-MEL-28 > 100 µM | SNB-75 60.8 µM | SN12C > 100 µM | MOLT-4 > 100 µM | OVCAR-8 > 100 µM

[N-]=[N+]=NC(CBr)c1cn([C@H]2C[C@H](O)[C@@H](CO)O2)c(=O)[nH]c1=O (stereo partly specified)
inactive: NCI-H460 > 100 µM | SK-OV-3 > 100 µM | HOP-92 > 100 µM | OVCAR-5 > 100 µM | NCI-H23 > 100 µM | HOP-62 > 100 µM | OVCAR-3 > 100 µM | SF-295 > 100 µM | HCT-116 > 100 µM | U-251 > 100 µM | UACC-62 > 100 µM | SK-MEL-28 > 100 µM | SK-MEL-5 > 100 µM | SNB-75 > 100 µM | SN12C > 100 µM | MOLT-4 > 100 µM | OVCAR-8 > 100 µM

Source: ChEMBL document CHEMBL1201862, “PubChem BioAssay data set” (2004)
